Source: article PMC10281575, “PfCRT mutations conferring piperaquine resistance in falciparum malaria shape the kinetics of quinoline drug binding and transport” (PLOS Pathogens, 2023)
Several values for one entry are separate records, joined by “and”; a condition that tells them apart may be missing. Equal values may be shown once.

Target: T1, PfCRT^Dd2_H97Y (Plasmodium falciparum, UniProt Q8IBZ9, A220S/H97Y/I356T/K76T/M74I/N326S/N75E/Q271E/R371I)
T1 construct: expressed in transfected cells; host or cells: Xenopus laevis oocytes injected with in vitro transcribed RNA (pSP64T)
T1 sequence (Q8IBZ9 1-424 M74I/N75E/K76T/H97Y/A220S/Q271E/N326S/I356T/R371I): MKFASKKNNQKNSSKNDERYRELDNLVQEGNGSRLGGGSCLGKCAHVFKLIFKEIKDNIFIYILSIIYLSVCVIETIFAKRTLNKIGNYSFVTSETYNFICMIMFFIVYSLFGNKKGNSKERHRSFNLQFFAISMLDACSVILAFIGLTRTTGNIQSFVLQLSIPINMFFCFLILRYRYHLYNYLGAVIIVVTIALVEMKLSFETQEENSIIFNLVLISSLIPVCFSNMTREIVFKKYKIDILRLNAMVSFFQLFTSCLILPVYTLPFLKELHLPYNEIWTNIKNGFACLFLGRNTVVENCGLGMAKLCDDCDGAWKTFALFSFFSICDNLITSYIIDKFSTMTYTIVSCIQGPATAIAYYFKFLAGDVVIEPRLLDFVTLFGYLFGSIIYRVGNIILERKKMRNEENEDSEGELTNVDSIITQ
Test: Verapamil inhibition of PfCRT-mediated CQ and PPQ transport in oocytes, PfCRT^Dd2_H97Y
Assay type: cell-based
Settings: individual replicates (S3 Fig)
Description: In all cases, the PfCRT-mediated CQ and PPQ transport was inhibited in the presence of 100 μM verapamil (S3 Fig).
Drug transport assays were performed as previously described. Briefly, measurements of radiolabeled drug uptake were made over 1 h, unless otherwise specified. […] Where specified, one or more unlabeled drugs were also present at the indicated concentrations. The direction of drug transport in the assays is from the extracellular medium (pH 6) into the oocyte cytosol (pH 7.2), which corresponds to the efflux of CQ or PPQ from the acidic digestive vacuole (pH 5.2) into the parasite cytosol (pH 7.2). The uptake assays were terminated by removing the oocytes from the reaction medium and washing them three times with 2 mL of ice-cold ND96 buffer. Each oocyte was transferred to a separate scintillation vial and lysed by the addition of 200 μL of a 5% SDS solution. The radioactivity in the sample was measured using a liquid scintillation analyser Tri-Carb 4910 TR (PerkinElmer). Water-injected oocytes were analyzed in parallel as a negative control. The buffer from each condition was measured in duplicate in parallel to each experiment to transform counts per minute into pmol of drug. Drug uptake attributable to PfCRT was determined by subtracting the background uptake from water-injected oocytes from that of PfCRT-expressing oocytes. In all cases, at least three independent experiments were performed on oocytes from different frogs, and for each condition in an experiment, measurements were made from 10 oocytes per treatment.
Supplementary file ppat.1011436.s006.tif: S3 Fig Verapamil inhibits PfCRT-mediated transport of CQ and PPQ. […] Left panels, data is shown as individual biological replicates (coloured symbols) overlaid onto bars representing the Mean ± S.E.M. (error bars). A one-tailed Student’s t-test was performed between untreated (no VP) and treated (+ 100 μM VP) samples, and the obtained p values are shown. Right panels, the uptake in VP-treated samples was divided by the uptake in their corresponding untreated pairs and subtracted from 100% to get the percentage of uptake inhibition mediated by the presence of 100 μM verapamil in the extracellular medium. Error bars are S.E. (TIF) Click here for additional data file.

In the case of Clc1ccc2c(N3CCN(CCCN4CCN(c5ccnc6cc(Cl)ccc56)CC4)CC3)ccnc2c1 [PPQ, piperaquine], the “PfCRTDd2_H97Y-mediated PPQ transport” value (50 µM PPQ + 100 µM VP) is reported as 18.33 pmol oocyte-1 h-1 and 31.33 pmol oocyte-1 h-1 and 27.94 pmol oocyte-1 h-1 and 23.86 pmol oocyte-1 h-1.

With CCN(CC)CCCC(C)Nc1ccnc2cc(Cl)ccc12 (stereo not drawn) [CQ, chloroquine] the “PfCRTDd2_H97Y-mediated CQ transport” value (50 µM CQ + 100 µM VP) was 2.480 pmol oocyte-1 h-1 and 0.550 pmol oocyte-1 h-1 and 3.310 pmol oocyte-1 h-1 and 4.210 pmol oocyte-1 h-1 and the “PfCRTDd2_H97Y-mediated CQ transport” value (50 µM CQ) was 8.240 pmol oocyte-1 h-1 and 3.560 pmol oocyte-1 h-1 and 5.410 pmol oocyte-1 h-1 and 4.920 pmol oocyte-1 h-1.
